Measurements taken from PubChem BioAssay (NCI).
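Dose response: 5 concentrations. Exposure: 48 h. Format: 96-well plates. Endpoint: linear interpolation; highest concentration if not reached. TGI denotes the concentration required for complete inhibition of growth.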

Experiments:
Assay in all cases: NCI tumour cell line growth inhibition, 48 h
[1] = tested on: HCT-116 colon
[2] = tested on: HCC-2998 colon
[3] = tested on: HT29 colon
[4] = tested on: SNB-78 CNS
[5] = tested on: ACHN renal
[6] = tested on: DLD-1 colon
[7] = tested on: UACC-257 melanoma
[8] = tested on: OVCAR-4 ovarian
[9] = tested on: KM12 colon
[10] = tested on: EKVX NSCLC
[11] = tested on: NCI-H23 lung
[12] = tested on: NCI-H460 lung
[13] = tested on: XF 498 CNS
[14] = tested on: OVCAR-8 ovarian
[15] = tested on: MOLT-4 leukemia
[16] = tested on: M19-MEL melanoma
[17] = tested on: HL-60(TB) leukemia
[18] = tested on: COLO 205 colon
[19] = tested on: RPMI-8226 leukemia
[20] = tested on: SF-268 CNS
[21] = tested on: HCT-15 colon
[22] = tested on: A498 renal
[23] = tested on: SW-620 colon
[24] = tested on: OVCAR-5 ovarian
[25] = tested on: KM20L2 colon
[26] = tested on: HOP-92 NSCLC
[27] = tested on: 786-0 renal
[28] = tested on: SF-539 CNS
[29] = tested on: CCRF-CEM leukemia
[30] = tested on: K-562 leukemia
[31] = tested on: SK-MEL-28 melanoma
[32] = tested on: SR leukemia
[33] = tested on: SNB-75 CNS
[34] = tested on: MALME-3M melanoma
[35] = tested on: SN12C renal
[36] = tested on: HOP-18 NSCLC
[37] = tested on: M14 melanoma
[38] = tested on: SF-295 CNS
[39] = tested on: SK-MEL-5 melanoma
[40] = tested on: LXFL 529 NSCLC
[41] = tested on: SK-OV-3 ovarian
[42] = tested on: IGROV1 ovarian
[43] = tested on: DMS 273 small cell lung
[44] = tested on: LOX IMVI melanoma
[45] = tested on: HOP-62 NSCLC
[46] = tested on: SNB-19 CNS
[47] = tested on: UO-31 renal
[48] = tested on: A549 NSCLC
[49] = tested on: U251 CNS
[50] = tested on: UACC-62 melanoma
[51] = tested on: CAKI-1 renal
[52] = tested on: SK-MEL-2 melanoma
[53] = tested on: OVCAR-3 ovarian
[54] = tested on: DMS 114 small cell lung
[55] = tested on: TK-10 renal
[56] = tested on: RXF 393 renal
[57] = tested on: RXF-631 renal
[58] = tested on: MCF7 breast
[59] = tested on: NCI-H226 lung
[60] = tested on: NCI/ADR-RES ovarian
[61] = tested on: SN12K1 renal
[62] = tested on: P388 leukemia
[63] = tested on: NCI-H522 lung
[64] = tested on: P388/ADR leukemia
[65] = tested on: MDA-MB-231 breast
[66] = tested on: PC-3 prostate
[67] = tested on: MDA-MB-435
[68] = tested on: BT-549 breast
[69] = tested on: MDA-N
[70] = tested on: DU-145 prostate
[71] = tested on: T-47D breast
[72] = tested on: HS 578T breast

Measured: TGI

CCCSS[C@H]1NC(=O)[C@H]1NC(=O)COc1ccccc1
13.2 µM: [15]
29.9 µM: [2]
31.9 µM: [8] | [11]
31.4 µM: [12]
25 µM: [18]
31.6 µM: [9] | [57]
66.7 µM: [36]
27.6 µM: [14]
36.3 µM: [3]
43.2 µM: [42]
28.6 µM: [30]
27.8 µM: [7]
32.1 µM: [50]
30.3 µM: [31]
30.2 µM: [5] | [44]
31.5 µM: [27] | [53]
> 100 µM: [24] | [38] | [41] | [45] | [46] | [47]
19.6 µM: [32]
63.9 µM: [55]
60.6 µM: [4]
18.2 µM: [23]
70.3 µM: [22]
31.8 µM: [49]
54.9 µM: [39]
43.6 µM: [51]
23.2 µM: [6]
44 µM: [33]
41.4 µM: [10]
33.8 µM: [13]
24.4 µM: [26] | [37]
34.5 µM: [54]
29.7 µM: [56]
26.9 µM: [34]
33 µM: [16]
40.5 µM: [20]
19.1 µM: [29]
42.4 µM: [25]
88.1 µM: [19]
29.8 µM: [35]
31.2 µM: [43]
5.72 µM: [17]
22 µM: [1]
29.5 µM: [28]
24.9 µM: [21]
18.3 µM: [40]
67.3 µM: [48]
33.5 µM: [52]

N/C(=N\N=C\c1ccc2c(c1)OCCO2)NO
22.4 µM: [39]
> 61.2 µM: [7]
> 72.7 µM: [44]
> 30.6 µM: [13]
27.5 µM: [59]
> 32.6 µM: [46]
33.6 µM: [3]
> 100 µM: [1] | [4] | [6] | [8] | [9] | [10] | [11] | [12] | [15] | [21] | [22] | [23] | [29] | [31] | [33] | [35] | [36] | [41] | [42] | [49] | [51] | [56]
93.2 µM: [45]
40.5 µM: [64]
> 63.2 µM: [17]
> 72.4 µM: [30]
> 40.8 µM: [24]
16.2 µM: [53]
98.6 µM: [16]
47.3 µM: [62]
> 52 µM: [25]
> 82.9 µM: [48]
> 53 µM: [47]
> 82.4 µM: [58]
57.6 µM: [43]
70.4 µM: [52]
> 49.1 µM: [20]
> 55.1 µM: [60]
42.1 µM: [63]
57.1 µM: [38]
> 57.7 µM: [61]
80.6 µM: [26]
> 81.1 µM: [28]
> 34.4 µM: [50]
> 77.6 µM: [54]
> 76.6 µM: [14]
38.5 µM: [18]
> 64.4 µM: [19]

O=C(O)CCc1nn2c(nc1=O)sc1ccc3ccccc3c12
> 100 µM: [1] | [2] | [3] | [4] | [5] | [6] | [7] | [8] | [10] | [11] | [12] | [13] | [14] | [15] | [16] | [17] | [18] | [19] | [20] | [21] | [59] | [23] | [25] | [26] | [27] | [28] | [29] | [30] | [31] | [32] | [33] | [34] | [35] | [36] | [37] | [38] | [39] | [40] | [41] | [42] | [43] | [44] | [45] | [46] | [47] | [48] | [49] | [50] | [51] | [53] | [54] | [55] | [56] | [57]

Cc1cc(C)c(-n2c(-c3ccc(Br)cc3)cs/c2=N\N=C2C=C(C(C)(C)C)C(=O)C(C(C)(C)C)=C2)c(C)c1
62.5 µM: [72]
> 78.6 µM: [45]
57.1 µM: [33]
> 100 µM: [1] | [2] | [3] | [4] | [5] | [6] | [7] | [58] | [65] | [8] | [9] | [10] | [11] | [12] | [13] | [14] | [15] | [16] | [17] | [18] | [19] | [20] | [21] | [66] | [59] | [23] | [24] | [67] | [25] | [27] | [28] | [68] | [29] | [60] | [30] | [69] | [31] | [32] | [34] | [35] | [36] | [37] | [38] | [39] | [40] | [41] | [42] | [70] | [71] | [43] | [44] | [46] | [63] | [47] | [48] | [49] | [50] | [51] | [52] | [53] | [54] | [55] | [57]
81.8 µM: [56]
97.7 µM: [22]
> 89.8 µM: [26]

CC1(C)C2C=CC1C(=O)CC2 (stereo unspecified)
> 100 µM: [1] | [2] | [3] | [4] | [5] | [6] | [7] | [8] | [9] | [10] | [11] | [12] | [13] | [14] | [15] | [17] | [19] | [20] | [21] | [22] | [59] | [23] | [24] | [25] | [26] | [27] | [28] | [29] | [30] | [31] | [33] | [34] | [36] | [37] | [38] | [39] | [40] | [43] | [44] | [45] | [46] | [63] | [47] | [48] | [49] | [51] | [52] | [53] | [55] | [56] | [57]
